Source: patent US20100267561A1, “HERBICIDAL PYRIDAZINONE DERIVATIVES” (priority 2007, published 2010)

Columns and labels:
Format in all cases: in vivo
rice (Oryza sativa) = assay: Test B flooded paddy test plant response
Summary of the method: (§1)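 2-leaf plants; pots flooded 3 cm above soil; compound added to paddy water; depth maintained. Greenhouse 13–15 d. Visual rating vs controls, 0 (no effect) to 100 (complete control); dash = no result.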

[1] = tested on: barnyardgrass (Echinochloa crus-galli); assay: Test B flooded paddy test plant response
Summary of the method: as §1

[2] = tested on: umbrella sedge (Cyperus difformis); assay: Test B flooded paddy test plant response
Summary of the method: as §1

[3] = tested on: canarygrass (Phalaris minor); assay: Test B postemergence plant response; details: for Canarygrass plant response rating: 8 g ai/ha, postemergence, 0-100 scale; for Plant response rating, Canarygrass: Postemergence
Summary of the method: (§2)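 Scoring: 0 means no effect and 100 complete control, judged by eye against controls after 13–15 days under greenhouse conditions following postemergence application at 2–18 cm plant height.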

[4] = tested on: chickweed (Stellaria media); assay: Test B postemergence plant response; details: for Chickweed plant response rating: 8 g ai/ha, postemergence, 0-100 scale; for Plant response rating, Chickweed: Postemergence
Summary of the method: as §2

[5] = tested on: winter barley (Hordeum vulgare); assay: Test B postemergence plant response; details: for Barley plant response rating: 8 g ai/ha, postemergence, 0-100 scale; for Plant response rating, Barley: Postemergence, scale 0 to 100, 0 no effect, 100 complete control
Summary of the method: as §2

[6] = tested on: windgrass (Apera spica-venti); assay: Test B postemergence plant response; details: for Windgrass plant response rating: 8 g ai/ha, postemergence, 0-100 scale; for Plant response rating, Windgrass: Postemergence
Summary of the method: as §2

[7] = tested on: wheat (Triticum aestivum); assay: Test A pre-/postemergence plant response
Summary of the method: (§3)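 Seeds were planted in blended loam soil and sand, then treated preemergence by directed soil spray. At that time, emerged plants (one- to two-leaf, 2–10 cm) received postemergence applications of the same surfactant-containing formulation. Injury was assessed visually on a 0–100 scale after approximately 10 days.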

[8] = tested on: velvetleaf (Abutilon theophrasti); assay: Test A pre-/postemergence plant response
Summary of the method: as §3

[9] = tested on: large crabgrass (Digitaria sanguinalis); assay: Test A pre-/postemergence plant response
Summary of the method: as §3

[10] = tested on: giant foxtail (Setaria faberi); assay: Test A pre-/postemergence plant response
Summary of the method: as §3

[11] = tested on: barnyardgrass (Echinochloa crus-galli); assay: Test A pre-/postemergence plant response
Summary of the method: as §3

corn (Zea mays) = assay: Test A pre-/postemergence plant response
Summary of the method: as §3

[12] = tested on: morningglory (Ipomoea coccinea); assay: Test A pre-/postemergence plant response
Summary of the method: as §3

[13] = Flood (flooded paddy test), 62 g ai/ha, scale 0 to 100, 0 no effect, 100 complete control
[14] = Flood (flooded paddy test), 125 g ai/ha, scale 0 to 100, 0 no effect, 100 complete control
[15] = Flood (flooded paddy test), 250 g ai/ha, scale 0 to 100, 0 no effect, 100 complete control
[16] = Flood, 31 g ai/ha, scale 0 to 100
[17] = 62 g ai/ha, scale 0 to 100, 0 no effect, 100 complete control
[18] = Postemergence, 31 g ai/ha, 0 to 100 scale, 0 no effect, 100 complete control
[19] = Postemergence, 125 g ai/ha, 0 to 100 scale, 0 no effect, 100 complete control
[20] = Preemergence, 31 g ai/ha, 0 to 100 scale, 0 is no effect, 100 is complete control
[21] = Preemergence, 125 g ai/ha, 0 to 100 scale (0 no effect, 100 complete control)
[22] = 31 g ai/ha, scale 0 to 100, 0 no effect, 100 complete control

CCCC(=O)Oc1cnn(C)c(=O)c1-n1nc(-c2ccc(Cl)cc2)cc1C [Compound 56]
100: Plant response rating, Crabgrass, Large [9, 19] | Plant response rating, Crabgrass, Large [9, 21] | Plant response rating, Foxtail, Giant [10, 18] | Plant response rating, Foxtail, Giant [10, 19] | Plant response rating, Foxtail, Giant [10, 21] | Plant response rating, Barnyardgrass [11, 18] | Plant response rating, Barnyardgrass [11, 19] | Plant response rating, Barnyardgrass [11, 21] | Plant response rating, Corn (corn (Zea mays); [19])
50: Canarygrass plant response rating [3] | Plant response rating, Barley ([5]; 31 g ai/ha)
20: Plant response rating, Barnyardgrass [1, 14] | Plant response rating, Windgrass ([6]; 31 g ai/ha, scale 0 to 100) | Plant response rating, Windgrass [6, 17] | Plant response rating, Wheat [7, 20]
80: Plant response rating, Wheat [7, 19] | Plant response rating, Wheat [7, 21] | Plant response rating, Crabgrass, Large [9, 18] | Plant response rating, Barnyardgrass [11, 20] | Plant response rating, Corn (corn (Zea mays); [21])
85: Plant response rating, Sedge, Umbrella [2, 14] | Plant response rating, Sedge, Umbrella [2, 15] | Plant response rating, Canarygrass ([3]; 16 g ai/ha, scale 0 to 100)
70: Plant response rating, Sedge, Umbrella [2, 16] | Plant response rating, Wheat [7, 18] | Plant response rating, Crabgrass, Large [9, 20]
10: Plant response rating, Rice (rice (Oryza sativa); [15])
90: Plant response rating, Canarygrass ([3]; 31 g ai/ha, scale 0 to 100) | Plant response rating, Foxtail, Giant [10, 20] | Plant response rating, Corn (corn (Zea mays); [18])
60: Plant response rating, Barnyardgrass [1, 15]
40: Plant response rating, Barley ([5]; 16 g ai/ha) | Plant response rating, Corn (corn (Zea mays); [20])
95: Plant response rating, Canarygrass [3, 17]
75: Plant response rating, Sedge, Umbrella [2, 13] | Plant response rating, Barley ([5]; 62 g ai/ha)
0: Plant response rating, Rice (rice (Oryza sativa); [13]) | Plant response rating, Rice (rice (Oryza sativa); [14]) | Plant response rating, Rice (rice (Oryza sativa); [16]) | Plant response rating, Barnyardgrass [1, 13] | Plant response rating, Barnyardgrass [1, 16] | Chickweed plant response rating [4] | Plant response rating, Chickweed ([4]; 16 g ai/ha, scale 0 to 100) | Plant response rating, Chickweed ([4]; 31 g ai/ha, scale 0 to 100) | Plant response rating, Chickweed [4, 17] | Barley plant response rating [5] | Windgrass plant response rating [6] | Plant response rating, Windgrass ([6]; 16 g ai/ha, scale 0 to 100) | Plant response rating, Velvetleaf [8, 18] | Plant response rating, Velvetleaf [8, 19] | Plant response rating, Velvetleaf [8, 20] | Plant response rating, Velvetleaf [8, 21] | Plant response rating, Morningglory [12, 18] | Plant response rating, Morningglory [12, 19] | Plant response rating, Morningglory [12, 20] | Plant response rating, Morningglory [12, 21]

Cc1cc(-c2ccc(Cl)cc2)nn1-c1c(OC(=O)c2ccccc2Cl)cnn(C)c1=O [Compound 38]
30: Plant response rating, Canarygrass [3, 17]
80: Plant response rating, Windgrass [6, 17] | Plant response rating, Foxtail, Giant [10, 18]
60: Plant response rating, Wheat [7, 19] | Plant response rating, Wheat [7, 21]
90: Plant response rating, Crabgrass, Large [9, 20] | Plant response rating, Foxtail, Giant [10, 19] | Plant response rating, Foxtail, Giant [10, 20] | Plant response rating, Barnyardgrass [11, 20] | Plant response rating, Corn (corn (Zea mays); [19])
20: Plant response rating, Barnyardgrass [1, 16] | Plant response rating, Sedge, Umbrella [2, 16] | Plant response rating, Wheat [7, 20] | Plant response rating, Corn (corn (Zea mays); [18])
95: Plant response rating, Barnyardgrass [1, 13] | Plant response rating, Barnyardgrass [1, 14] | Plant response rating, Barnyardgrass [1, 15]
100: Plant response rating, Crabgrass, Large [9, 19] | Plant response rating, Crabgrass, Large [9, 21] | Plant response rating, Foxtail, Giant [10, 21] | Plant response rating, Barnyardgrass [11, 19] | Plant response rating, Barnyardgrass [11, 21]
10: Plant response rating, Canarygrass [3, 22] | Plant response rating, Barley ([5]; 31 g ai/ha) | Plant response rating, Barley ([5]; 62 g ai/ha)
85: Plant response rating, Rice (rice (Oryza sativa); [15])
40: Plant response rating, Crabgrass, Large [9, 18] | Plant response rating, Barnyardgrass [11, 18]
0: Plant response rating, Rice (rice (Oryza sativa); [16]) | Canarygrass plant response rating [3] | Plant response rating, Canarygrass ([3]; 16 g ai/ha, scale 0 to 100) | Chickweed plant response rating [4] | Plant response rating, Chickweed ([4]; 16 g ai/ha, scale 0 to 100) | Plant response rating, Chickweed [4, 22] | Plant response rating, Chickweed [4, 17] | Barley plant response rating [5] | Plant response rating, Barley ([5]; 16 g ai/ha) | Windgrass plant response rating [6] | Plant response rating, Windgrass ([6]; 16 g ai/ha, scale 0 to 100) | Plant response rating, Wheat [7, 18] | Plant response rating, Velvetleaf [8, 18] | Plant response rating, Velvetleaf [8, 19] | Plant response rating, Velvetleaf [8, 20] | Plant response rating, Velvetleaf [8, 21] | Plant response rating, Corn (corn (Zea mays); [20]) | Plant response rating, Morningglory [12, 18] | Plant response rating, Morningglory [12, 19] | Plant response rating, Morningglory [12, 20] | Plant response rating, Morningglory [12, 21]
75: Plant response rating, Rice (rice (Oryza sativa); [13]) | Plant response rating, Rice (rice (Oryza sativa); [14])
70: Plant response rating, Sedge, Umbrella [2, 14] | Plant response rating, Sedge, Umbrella [2, 15] | Plant response rating, Corn (corn (Zea mays); [21])

Cc1cc(-c2ccc(Cl)cc2)nn1-c1c(OC(=O)c2cccc(Cl)c2)cnn(C)c1=O [Compound 32]
65: Plant response rating, Rice (rice (Oryza sativa); [15]) | Plant response rating, Barnyardgrass [1, 14]
90: Plant response rating, Crabgrass, Large [9, 20] | Plant response rating, Crabgrass, Large [9, 21] | Plant response rating, Foxtail, Giant [10, 19] | Plant response rating, Foxtail, Giant [10, 20] | Plant response rating, Barnyardgrass [11, 21]
10: Plant response rating, Barnyardgrass [1, 16] | Plant response rating, Canarygrass ([3]; 16 g ai/ha, scale 0 to 100) | Plant response rating, Canarygrass [3, 22] | Plant response rating, Velvetleaf [8, 21] | Plant response rating, Crabgrass, Large [9, 18] | Plant response rating, Foxtail, Giant [10, 18]
100: Plant response rating, Foxtail, Giant [10, 21]
50: Plant response rating, Windgrass [6, 17] | Plant response rating, Corn (corn (Zea mays); [19])
0: Plant response rating, Rice (rice (Oryza sativa); [13]) | Plant response rating, Rice (rice (Oryza sativa); [16]) | Canarygrass plant response rating [3] | Chickweed plant response rating [4] | Plant response rating, Chickweed ([4]; 16 g ai/ha, scale 0 to 100) | Plant response rating, Chickweed [4, 22] | Barley plant response rating [5] | Plant response rating, Barley ([5]; 16 g ai/ha) | Plant response rating, Barley ([5]; 31 g ai/ha) | Plant response rating, Barley ([5]; 62 g ai/ha) | Windgrass plant response rating [6] | Plant response rating, Windgrass ([6]; 16 g ai/ha, scale 0 to 100) | Plant response rating, Wheat [7, 18] | Plant response rating, Wheat [7, 20] | Plant response rating, Velvetleaf [8, 18] | Plant response rating, Velvetleaf [8, 19] | Plant response rating, Velvetleaf [8, 20] | Plant response rating, Barnyardgrass [11, 18] | Plant response rating, Corn (corn (Zea mays); [18]) | Plant response rating, Corn (corn (Zea mays); [20]) | Plant response rating, Morningglory [12, 18] | Plant response rating, Morningglory [12, 19] | Plant response rating, Morningglory [12, 20] | Plant response rating, Morningglory [12, 21]
60: Plant response rating, Wheat [7, 21] | Plant response rating, Corn (corn (Zea mays); [21])
30: Plant response rating, Rice (rice (Oryza sativa); [14]) | Plant response rating, Sedge, Umbrella [2, 13] | Plant response rating, Sedge, Umbrella [2, 14] | Plant response rating, Sedge, Umbrella [2, 15] | Plant response rating, Canarygrass [3, 17]
20: Plant response rating, Barnyardgrass [1, 13] | Plant response rating, Sedge, Umbrella [2, 16] | Plant response rating, Chickweed [4, 17] | Plant response rating, Wheat [7, 19] | Plant response rating, Barnyardgrass [11, 20]
70: Plant response rating, Barnyardgrass [1, 15] | Plant response rating, Crabgrass, Large [9, 19] | Plant response rating, Barnyardgrass [11, 19]
